As a reminder, the Ki is the equilibrium dissociation constant of an inhibitor or competing ligand from its target.

For assay [1], the target named is human α5β3γ2 receptors (α5-GABAA receptor) (Homo sapiens (Human), UniProt P18507+P31644). Briefly: 3H-flunitrazepam competition binding, human α5β3γ2 GABAA receptor. Conditions: HEK293 cell membranes, 1 nM 3H-flunitrazepam; read-out: α5-GABAAR Ki. Put shortly:
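Radioligand displacement of 1 nM 3H-flunitrazepam from membranes of HEK293 lines stably expressing the human subtypes, 1 h at room temperature, compound in 8-point 4-fold series. Bound label on GF/C filters counted by scintillation; Ki derived from fitted IC50, with flumazenil as low control.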

The target in assay [2] is α5-GABAA receptor (α5, β3, γ2 subunits) (Homo sapiens (Human), UniProt P18507+P31644). The experiment in a line: Whole cell patch clamp, inverse agonist efficacy in HEK293 cells expressing α5-GABAA receptor. Format: cell-based. The settings on record: HEK293, drug 100 nM, GABA 0.05 μM, −60 mV; read-out: Compound inverse agonist efficacy %. An excerpt: The inventors used electrophysiological methods to determine the inverse agonist efficacy of the drugs to be tested on the α5-GABAA receptor. The detailed methods are as follows:
Different subunits of the GABAA receptor were co-expressed in the HEK293 cell line to construct a fully functional GABAA receptor. The α, β, and γ subunits are essential to form a complete functional GABAA receptor. In this example, the present disclosure had established the following cell model: α5 subunit (see GenBank Accession No.: NM_000810.3 for protein sequences), β3 subunit (see GenBank Accession No.: NM_000814.5 for protein sequences), and γ2 subunit (see GenBank Accession No.: NM_000816.3 for protein sequences) were co-expressed in the HEK293 cell line, followed by screening the monoclonal stably transfected cell line. This cell line expressed a fully functional α5-GABAA receptor.
The monoclonal stably transfected HEK293 cell line expressing α5-GABAA receptor were cultured in 10 cm culture dishes and passaged when the cells grew to 80% to 90% confluent. During passaging, the culture medium was aspirated first, then 3 mL of DPBS phosphate buffer salt (Gibco™) was added to the culture dishes, and the culture dishes were shaken slightly, and DPBS was aspirated. 1 mL of trypsin (TrypLE Express, Gibco™) was added thereto, and the cells were digested at 37° C. for 1-2 minutes. Then 3 mL of complete medium (DMEM+10% FBS (Gibco™)) was added and the cells at the bottom of the culture dishes were dispersed. The cell suspension was transferred to a 15 mL centrifugal tube (Corning) and then centrifuged at 200 g for 3 minutes. The supernatant was discarded, 4 mL of complete medium was added, and the cells were gently blown and resuspended for use. If cell passaging was performed, the cell suspension was diluted at a ratio of 1:5 or 1:10. If cells for electrophysiological detection were prepared, the cell suspension was diluted in a ratio of 1:12, then added into a 24-well dish (Corning™) in which glass slides were placed and pretreated with Poly-D-Lysine, and the experiment was carried out after the cells adhered to the wall. The cells used for electrophysiology was cultured no more than 48 hours.
Drug concentration setting: The final drug concentration used in drug screening was 100 nM, and the GABA concentration was 0.05 μM. The whole cell patch clamp technique was used in electrophysiological assays, which could refer to the literature (I. Lecker, Y. Yin, D. S. Wang and B. A. Orser, British Journal of Anaesthesia, 2013, 110 (Si), i73-i81). The compositions of the extracellular solution for electrophysiology assay were as follows: 150 mM NaCl, 5 mM KCl, 2.5 mM CaCl2, 1 mM MgCl2, 10 mM HEPES, and 10 mM glucose (pH 7.4); the formulation of the electrode internal fluid for electrophysiology use was as follows: 140 mM CsCl, 11 mM EGTA, 10 mM HEPES, 2 mM CaCl2, 1 mM MgCl2, 4 mM MgATP, and 2 mM TEA (pH 7.3). The signal acquisition used an EPC-10 amplifier and the PatchMaster software (HEKA) or Axon700B amplifier and Clampex software (AXON). The recording electrode was pulled from borosilicate glass, and the electrode resistance was 4 to 6 MQ. The ALA-VC-8PG™ system was used for drug application. Single cell that grew independently was selected for recording. During recording, the cell membrane potential was clamped at −60 mV. During experiment, an extracellular solution was applied outside the cells for about 20 seconds. When the baseline reached to a stable state, the extracellular solution was switched to the GABA solution to induce an inward current. After about 20 to 40 seconds until the current was stable, the solution was switched to a corresponding drug solution to detect the effect of the drug. At last, the solution was switched to the extracellular solution, and the experiment was terminated when the baseline returned to the level before drug application. […]

Turning to `COC(C)CN1CCN(c2ccc(OCc3c(C)nnn3-c3ccc(C(F)F)cc3)nn2)CC1=O` (stereo not drawn) [Example 141, 4-(6-((1-(4-(Difluoromethyl)phenyl)-4-methyl-1H-1,2,3-triazol-5-yl)methoxy)pyridazin-3-yl)-1-(2-methoxypropyl)piperazin-2-one], the Ki in assay [1] turned out to be 4.27 nM. The inhibition at 0.1 µM in assay [2] was found to be 47.2%. Taken in the same sequence, the figures for `Cc1nnn(-c2ccc(C(F)F)cc2)c1COc1ccc(N2CC(C(=O)N3CC(C)OC(C)C3)C2)nn1` (stereo not drawn) [Example 156, (1-(6-((1-(4-(Difluoromethyl)phenyl)-4-methyl-1H-1,2,3-triazol-5-yl)methoxy)pyridazin-3-yl)azetidin-3-yl)(2,6-dimethylmorpholino)methanone] were 4.13 nM and 44.3%.

As for `Cc1nnn(-c2ccc(CF)cc2)c1COc1ccc(N2CCN3CCNC(=O)[C@@H]3C2)nn1` [Example 162, (S)-8-(6-((1-(4-(Fluoromethyl)phenyl)-4-methyl-1H-1,2,3-triazol-5-yl)methoxy)pyridazin-3-yl)hexahydro-2H-pyrazino[1,2-a]pyrazin-1(6H)-one], the Ki in assay [1] came to 2.58 nM. The inhibition at 0.1 µM in assay [2] was found to be 47.7%. In the same order, the values of `Cc1nnn(-c2ccc(C(F)F)cc2)c1COc1ccc(N2CCN3CC(C4CC4)NC(=O)[C@@H]3C2)nn1` (single isomer, unassigned) [Example 203] are 1.99 nM and 50.8%.

As for `CCNC(=O)C1CN(c2ccc(OCc3c(C)nnn3-c3ccc(C(F)F)cc3)nc2)C1` [Example 159, 1-(6-((1-(4-(Difluoromethyl)phenyl)-4-methyl-1H-1,2,3-triazol-5-yl)methoxy)pyridin-3-yl)-N-ethylazetidine-3-carboxamide], in assay [1], the Ki stood at 20 nM. Moreover, the inhibition at 0.1 µM in assay [2] was found to be 49.9%. In the same order, the values of `Cc1nnn(-c2ccc(C(F)F)cc2)c1COc1ccc(N2CCN(CC3COC3)C(=O)C2)nn1` [Example 100, 4-(6-((1-(4-(Difluoromethyl)phenyl)-4-methyl-1H-1,2,3-triazol-5-yl)methoxy)pyridazin-3-yl)-1-(oxetan-3-ylmethyl)piperazin-2-one] are 1.54 nM and 54.6%.

In the case of `Cc1nnn(-c2ccc(C(F)F)cc2)c1COc1ccc(N2CCN(CCO)C(=O)C2)nn1` [Example 59, 4-(6-((1-(4-(Difluoromethyl)phenyl)-4-methyl-1H-1,2,3-triazol-5-yl)methoxy)pyridazin-3-yl)-1-(2-hydroxyethyl)piperazin-2-one], the Ki in assay [1] amounted to 3.97 nM. For the same compound, the inhibition at 0.1 µM in assay [2] is 44.9%. With `Cc1nnn(-c2ccc(C(F)F)cc2)c1COc1ccc(N2CCCC2=O)nn1` [Example 20, 1-(6-((1-(4-(Difluoromethyl)phenyl)-4-methyl-1H-1,2,3-triazol-5-yl)methoxy)pyridazin-3-yl)pyrrolidin-2-one], in assay [1], the inhibition constant (Ki) stood at 1.97 nM. Further, the inhibition at 0.1 µM in assay [2] is 51.2%. With `Cc1nnn(-c2ccc(C(F)F)cc2)c1COc1ccc(N2CCN3CC(CC(C)C)NC(=O)[C@@H]3C2)nn1` (single isomer, unassigned) [Example 208], the Ki in assay [1] is 1.96 nM. Also, the inhibition at 0.1 µM in assay [2] was found to be 55.9%. In the same order, the values of `Cc1nnn(-c2ccc(C(F)F)cc2)c1COc1ccc(N2CCN3C(C(C)C)CNC(=O)[C@@H]3C2)nn1` (stereo partly drawn) [Example 207] are 4.92 nM and 51.9%. Taken in the same sequence, the figures for `COc1cc(N2CCNC(=O)C2)nnc1OCc1c(C)nnn1-c1ccc(C(F)F)cc1` [Example 134, 4-(6-((1-(4-(Difluoromethyl)phenyl)-4-methyl-1H-1,2,3-triazol-5-yl)methoxy)-5-methoxypyridazin-3-yl)piperazin-2-one] were 1.5 nM and 45.7%. In the same order, the values of `Cc1nnn(-c2ccc(C(F)F)cc2)c1COc1ccc(N2CCC2=O)nn1` [Example 18, 1-(6-((1-(4-(Difluoromethyl)phenyl)-4-methyl-1H-1,2,3-triazol-5-yl)methoxy)pyridazin-3-yl)azetidin-2-one] are 2.13 nM and 51.5%. Turning to `Cc1nnn(-c2ccc(C(F)F)cc2)c1COc1ccc(N2CC(=O)N3CCN(C)CC3C2)nn1` (stereo not drawn) [Example 69, 2-(6-((1-(4-(Difluoromethyl)phenyl)-4-methyl-1H-1,2,3-triazol-5-yl)methoxy)pyridazin-3-yl)-8-methylhexahydro-1H-pyrazino[1,2-a]pyrazin-4(6H)-one], the Ki in assay [1] was found to be 0.9 nM. For the same compound, the inhibition at 0.1 µM in assay [2] was found to be 55.1%. On to `Cc1nnn(-c2ccc(C(F)F)cc2)c1COc1ccc(N2CCN3CC(c4cnn(C)c4)NC(=O)[C@@H]3C2)nn1` (single isomer, unassigned) [Example 210], for which the Ki in assay [1] came out at 2.79 nM. Moreover, the inhibition at 0.1 µM in assay [2] worked out at 47.6%.

For `Cc1nnn(-c2ccc(C(F)F)cc2)c1COc1ccc(N2CC(C(=O)Nc3ccncc3)C2)nn1` [Example 52, 1-(6-((1-(4-(Difluoromethyl)phenyl)-4-methyl-1H-1,2,3-triazol-5-yl)methoxy)pyridazin-3-yl)-N-(pyridin-4-yl)azetidine-3-carboxamide], the Ki in assay [1] amounted to 1.1 nM. The inhibition at 0.1 µM in assay [2] is 45.9%. Regarding `O=C(O)c1ccc(CCCN2CCN(c3ccc(OCc4c(Cl)nnn4-c4ccc(C(F)F)cc4)nn3)CC2=O)cc1` [Example 146, 4-(3-(4-(6-((4-Chloro-1-(4-(difluoromethyl)phenyl)-1H-1,2,3-triazol-5-yl)methoxy)pyridazin-3-yl)-2-oxopiperazin-1-yl)propyl)benzoic acid], the Ki in assay [1] worked out at 4.44 nM. In assay [2], the inhibition at 0.1 µM stood at 56.5%. In the case of `O=C1CN(c2ccc(OCc3cnnn3-c3ccc(C(F)F)cc3)nn2)CCN1` [Example 132, 4-(6-((1-(4-(Difluoromethyl)phenyl)-1H-1,2,3-triazol-5-yl)methoxy)pyridazin-3-yl)piperazin-2-one], in assay [1], the Ki was 12.1 nM. The inhibition at 0.1 µM in assay [2] was determined as 53.2%. As for `Cc1nnn(-c2ccc(C(F)F)cc2)c1COc1ccc(N2CC(C(=O)N3CCCC(O)C3)C2)nn1` (stereo not drawn) [Example 154, (1-(6-((1-(4-(Difluoromethyl)phenyl)-4-methyl-1H-1,2,3-triazol-5-yl)methoxy)pyridazin-3-yl)azetidin-3-yl)(3-hydroxypiperidin-1-yl)methanone], in assay [1], the Ki was found to be 5.26 nM. Besides, the inhibition at 0.1 µM in assay [2] is 46.6%. In the same order, the values of `Cc1nnn(-c2ccc(C(F)F)cc2)c1COc1ccc(N2CCO[C@H](C(=O)O)C2)nn1` [Example 35, (S)-4-(6-((1-(4-(Difluoromethyl)phenyl)-4-methyl-1H-1,2,3-triazol-5-yl)methoxy)pyridazin-3-yl)morpholine-2-carboxylic acid] are 9.03 nM and 52.8%.

Take `Cc1nnn(-c2ccc(C(F)F)cc2)c1COc1ccc(N2CCN(CCN)C(=O)C2)nn1` [Example 67, 1-(2-Aminoethyl)-4-(6-((1-(4-(difluoromethyl)phenyl)-4-methyl-1H-1,2,3-triazol-5-yl)methoxy)pyridazin-3-yl)piperazin-2-one]: the inhibition at 0.1 µM in assay [2] turned out to be 50.1%.

Values taken from patent US20250136581A1, “SUBSTITUTED TRIAZOLE DERIVATIVE, PREPARATION METHOD THEREFOR, PHARMACEUTICAL COMPOSITION THEREOF, AND USE THEREOF” (SHANGHAI SIMR BIOTECHNOLOGY CO., LTD., priority 2021, published 2025).
